Results taken from US12256759B2, “Methods for the reduction of methane production in ruminants” (Loam Bio Pty Ltd, priority 2021, dated 2025).

Legend:
methane production = settings: among antimethanogenic compounds found in A. taxiformis; cited from earlier work
[1] = molecular target: T1, methyl-coenzyme M reductase (MCR) (Methanothermobacter marburgensis, UniProt P11558); settings: prevents the final catalysis step of methanogenesis; cited from earlier work
T1 sequence (P11558 1-550): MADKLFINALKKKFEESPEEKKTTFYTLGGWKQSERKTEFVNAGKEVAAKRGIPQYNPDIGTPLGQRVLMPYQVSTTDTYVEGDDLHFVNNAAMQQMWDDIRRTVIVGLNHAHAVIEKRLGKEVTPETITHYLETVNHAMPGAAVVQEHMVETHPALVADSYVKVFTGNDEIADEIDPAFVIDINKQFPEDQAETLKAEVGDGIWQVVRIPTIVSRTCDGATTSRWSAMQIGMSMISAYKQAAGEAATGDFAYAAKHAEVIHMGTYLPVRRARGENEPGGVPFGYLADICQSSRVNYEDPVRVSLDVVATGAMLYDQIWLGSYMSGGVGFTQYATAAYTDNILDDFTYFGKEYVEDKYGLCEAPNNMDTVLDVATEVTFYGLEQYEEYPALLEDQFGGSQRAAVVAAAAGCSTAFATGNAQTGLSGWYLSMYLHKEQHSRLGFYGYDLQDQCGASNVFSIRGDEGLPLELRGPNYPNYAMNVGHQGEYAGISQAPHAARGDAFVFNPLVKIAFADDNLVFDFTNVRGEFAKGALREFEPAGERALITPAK
T1 sequence (P11560 1-443 partner): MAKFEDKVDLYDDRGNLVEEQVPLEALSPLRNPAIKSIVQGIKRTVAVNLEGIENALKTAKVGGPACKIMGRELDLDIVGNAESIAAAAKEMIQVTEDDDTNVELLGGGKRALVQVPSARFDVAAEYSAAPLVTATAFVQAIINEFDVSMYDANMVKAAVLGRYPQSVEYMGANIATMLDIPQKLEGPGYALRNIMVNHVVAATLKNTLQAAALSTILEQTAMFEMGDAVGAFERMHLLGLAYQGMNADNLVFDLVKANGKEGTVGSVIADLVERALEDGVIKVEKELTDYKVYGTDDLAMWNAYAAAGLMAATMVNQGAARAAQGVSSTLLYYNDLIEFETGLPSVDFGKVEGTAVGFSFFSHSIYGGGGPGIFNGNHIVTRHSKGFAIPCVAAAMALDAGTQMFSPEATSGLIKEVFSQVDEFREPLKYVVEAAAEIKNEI
T1 sequence (P11562 1-249 partner): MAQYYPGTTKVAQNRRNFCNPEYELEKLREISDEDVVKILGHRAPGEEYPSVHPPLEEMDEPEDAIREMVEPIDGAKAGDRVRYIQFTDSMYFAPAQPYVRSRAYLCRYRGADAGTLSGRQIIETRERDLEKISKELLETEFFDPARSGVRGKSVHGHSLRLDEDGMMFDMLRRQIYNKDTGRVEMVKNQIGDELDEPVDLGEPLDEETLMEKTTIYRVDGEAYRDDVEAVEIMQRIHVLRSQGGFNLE

[2] = system: Methanobrevibacter smithii; settings: 100 ul chloroform, positive control

Compound | activity at inhibiting methane production (methane production) | mode of action on methyl-coenzyme M reductase (MCR) [1] | inhibition of methane production [2]
ClC(Br)Br [dibromochloromethane] | highest activity at inhibiting methane production |  | 
BrC(Br)Br [bromoform] | highest activity at inhibiting methane production | competitive inhibitor or analog | 
ClC(Cl)Cl [chloroform] |  |  | dramatic inhibition in methane production
